From patent publication US4510142A, “Derivatives of biphenyl alkyl carboxylates and their use as medicaments” (Pierre Fabre S.A., priority 1981, dated 1985) come the findings set out here.

For data set [1], the system named is carragenine oedema, rat's foot. The data set can be described thus: anti-inflammatory oedema test by injecting carragenine into a rat's foot (Winter, Ribley and Nuss). The data set is classed as in vivo. As for the experimental part: Winter, E. Ribley and G. Nuss--Proc. Soc. Exper. Biol. Med., 1962, 111, 544 547.
The products were administered orally in suspension in a Tween-water mixture 2 hours before the experiment. All the administered compounds have a good anti-inflammatory activity. It will particularly be noted that the compound of Example 14 has a DE50 of 3 mg/kg.

Another data set is described as follows: in vivo. As to conditions: mouse, in vivo, po. As for the experimental part: (§1) A toxicity study was carried out on conventional mice weighing about 20 grams.
(§2) The compounds corresponding to the general formula I according to the present invention and the pharmaceutically acceptable salts thereof were administered orally. The DL50 was calculated according to the method by L. C. Miller and M. L. Tainter--Proc. Soc. Exper.

For data set [2], the system named is pain (phenyl benzoquinone injection). The data set can be described thus: pain-killing activity according to Siegmund (phenyl benzoquinone injection). The data set is classed as in vivo. As to conditions: oral, 30 minutes before injection of phenyl benzoquinone; read-out: DE50 (pain-killing activity). The procedure: The pain-killing activity was studied according to Siegmund--J. Pharm. Exptl. ther., 1957, 119,453.
The compounds according to the present invention were administered orally 30 minutes before the injection of phenyl benzoquinone.

The test system of another data set is conventional mice. The data set can be described thus: in vivo. As to conditions: p.o.; comparison products. As for the experimental part: as §1, §2
The mark [3] stands for this setting: Rattus norvegicus, po, read-out: DE50 (carragenine).
The mark [4] stands for this setting: Rattus norvegicus, po, comparison products, read-out: DE50 (carragenine).

Counter-ions that a name gives are not always drawn. Like-named read-outs stand apart in the source and are kept apart here.

The LD50 is the dose at which mortality reaches 50%. A higher LD50 goes with lower toxicity.

For the molecule `CC(=O)Oc1ccccc1C(=O)O` [Aspirin], the ED50 in data set [1] (setting [3]) came out at 135 mg/kg.

`CC(C(=O)OCC(=O)N1CCN(C)CC1)c1ccc(-c2ccccc2Cl)cc1` (stereo not drawn) [Example 12, 2-(4-methylpiperazino)-2-oxoethyl 2-(2'-chloro-4-biphenylyl)propionate hydrochloride]: in “in vivo”, the 50% lethal dose (LD50) is > 500 mg/kg. The ED50 in data set [2] was 7 mg/kg.

Take `CC(C(=O)OCC(=O)N1CCC(c2ccccc2)CC1)c1ccc(-c2ccccc2Cl)cc1` (stereo not drawn) [Example 14, 2-(4-phenylpiperidino)-2-oxoethyl 2-(2'-chloro-4-biphenylyl)propionate]: in the data set “in vivo”, the LD50 was > 500 mg/kg. For the same molecule, the ED50 in data set [2] turned out to be 5 mg/kg; in data set [1] (rat, oral suspension in Tween-water, 2 hours before the experiment, read-out: DE50 (anti-inflammatory activity)), 3 mg/kg.

As to `CC(C)Cc1ccc(C(C)C(=O)O)cc1` (stereo not drawn) [Ibuprofen], the ED50 in data set [1] (setting [4]) came out at 14 mg/kg.

In turn, `COc1ccc2c(c1)c(CC(=O)O)c(C)n2C(=O)c1ccc(Cl)cc1` [Indometacine] yielded an LD50 in the data set with conventional mice of 20 mg/kg. Further, in data set [1] (setting [3]), the ED50 worked out at 4 mg/kg.

With `COc1ccc2cc([C@H](C)C(=O)O)ccc2c1` [Naproxen], the ED50 in data set [1] (setting [4]) stood at 5 mg/kg.

Phenylbutanone showed a 50% lethal dose (LD50) in the data set on conventional mice of 400 mg/kg. The “DE50 (carragenine)” value in data set [1] (p.o., comparison products) was found to be 30 mg/kg.
